{"source": "patent US20100160445A1", "about": "“Synergistic Mixtures of OPP and DGH” (priority 2002, published 2010)", "system": "mixed inoculum of bacteria", "assay": "MIC and synergy (K) in nutrient broth, microtiter plates", "type": "cell-based", "experimental": "Stock solutions of each product were prepared in sterile distilled water. Synergism was measured by the method first described by F. C. Kull, P. C. Eisman, H. D. Sylwestrowicz and R. L. Mayer in Applied Microbiology, 9, 538-41 ([…]). This manner of determining synergism has been widely used and is industrially acceptable. It is believed that the specified method is sufficient in explaining the process. However for a further description, reference can be made to U.S. Pat. No. 3,231,509 and its file history, where this type of data was considered acceptable.\n• 1. Incubator capable of maintaining a variable temperature range (25-45 C) • 2. Samples of each biocide or test compound to be examined • 3. Microtiter plates—96 well with lid, sterile. • 4. 8-12 channel micropipetting device capable of pipetting 0-250 ul volumes • 5. Micropipette tips capable of holding up to 250 ul volumes • 6. Sterile microbiological culture broth. Trypticase Soy Broth (TSB) or Nutrient Broth (NB) is recommended for bacteria and Sabouraud Maltose Broth (SMB) or Sabouraud Dextrose Broth (SDB) is recommended for yeasts and molds. In the case of this particular study the microbiological culture medium was Nutrient Broth at pH 7.0, 8.0 and 9.0. • 7. Pure cultures of microorganisms of choice grown on appropriate agar medium • 8. Sterile distilled water • 9. 100 mL volumetric flasks (one for each biocide to be tested) • 10. Sterile 10 mL tubes of Phosphate buffer (Butterfield's buffer pH 7.2+/−0.2). Contains purified water, monobasic potassium phosphate and sodium hydroxide for pH adjustment. • 11. Sterile cotton swabs • 12. 0.5 MacFarland Turbidity Standard\nThe day before testing, perform a streak plate of each organism to be tested on an appropriate agar medium (Trypticase Soy Agar). Organisms tested in this study were: Wild strain bacteria isolated from previously contaminated industrial systems and which were identified as: Pseudomonas sp., Escherchia coli , Enterobacter sp., Alcaligenes sp. and Alcaligenes faecalis. On the day of the test, use a sterile cotton swab to harvest some of the growth. Place swab into a tube containing 10 mL sterile phosphate buffer. Compare and adjust the turbidity of the organisms in the tube to 1×10^8 cfu/mL using a 0.5 MacFarland Turbidity Standard. Dilute the 10 mL tube into 90 mL of sterile 2× nutrient broth at pH 7.0, 8.0 and 9.0.\n1. Design the layout of the microtiter plates based on the number of organisms to test and the number of biocides and desired concentrations to test. A separate microtiter plate is required for testing each biocide alone, in addition to the combination microtiter plate. 2. Prepare a working stock solution of each biocide to be tested. For the combination microtiter plate, the working stock solution of Biocide A will be 8× the concentration desired in the first well of the combination microtiter plate. The working stock solution of Biocide B will be 4× the concentration desired in the first well of the combination microtiter plate. For the alone microtiter plates, the working stock solutions of Biocide A and Biocide B will both be 4× the concentration desired in the first well of the single biocide microtiter plates.\nDodecylguanidine hydrochloride: (For combination plates) A solution of this product which is 35% active, was made as follows: […]=8000 ppm active=8000/0.35=22,857 ppm, 2.28 g into 100 mL sterile diH2O. Levels to test are: 1000 ppm, 500 ppm, 250 ppm, 125 ppm, 62.5 ppm, 31.2 ppm, 15.6 ppm, 7.8 ppm, 3.9 ppm, 1.95 ppm\nOrtho-PhenylPhenol: (For combination plates) Make a solution of this product which is 99% active, 4×125=500 ppm active=500/0.99=505 ppm, 0.05 g into 100 mL MeOH and sterile diH2O. Level to test is 125 ppm.\n3. Place 50 ul of sterile distilled water in all of the rows in columns 1 through 10, and 100 ul of sterile distilled water in all of the rows in columns 11 and 12 of the 96 well combination microtiter plate. […]", "note": "Where a name gives a salt, the structure may show the parent alone. Read-outs that look alike come from different tables or passages of the source."}
{"smiles": "CCCCCCCCCCCCNC(=N)N", "note": "[DGH, Dodecylguanidine Hydrochloride]", "values": [{"measurement": "MIC", "setting": "pH 7, read-out: MIC, biocide alone", "value": 62.5, "unit": "µg/mL"}, {"measurement": "Synergy Index", "setting": "pH 7.0, 62.5 ppm DGH alone (100:0)", "value": 1.00}, {"measurement": "MIC", "setting": "pH 8, read-out: MIC, biocide alone", "value": 15.6, "unit": "µg/mL"}, {"measurement": "Synergy Index", "setting": "pH 8.0, 15.6 ppm DGH alone (100:0)", "value": 1.00}, {"measurement": "MIC", "setting": "pH 9, read-out: MIC, biocide alone", "value": 15.6, "unit": "µg/mL"}, {"measurement": "Synergy Index", "setting": "pH 9.0, 15.6 ppm DGH alone (100:0)", "value": 1.00}]}
